According to US20220107328A1, “METHODS OF TREATING LIVER DISEASES” (Camp4 Therapeutics Corporation, priority 2018, published 2022):
Several values for one entry are separate records, joined by “and”; a condition that tells them apart may be missing. Identical values can stand only once.

Assays:
[1] = tested on: COL1A1 mRNA; assay: qRT-PCR of COL1A1 mRNA in human primary hepatic stellate cells; type: cell-based; details: for Primary Stellate cells COL1A1 (fold change in mRNA expression): 3 μM, relative to GAPDH; for Relative COL1A1 mRNA levels RQ: GSK3 inhibitors in hepatic stellate cells; for COL1A1 expression (in words): hepatic stellate cells, serial dilutions, 18 hours
Procedure: Cells were plated at a density of 17000 cells/well in a 96-well plate and allowed to adhere overnight. The following day cell culture media was replenished with the indicated concentration(s) of compound for 18 hours. […] Medium was removed after 18 hours and cells were processed for further analysis, e.g. qRT-PCR.
Analysis of the fold changes in expression as measured by qRT-PCR were performed using the technique below. The control was DMSO, and the treatment was the selected compound (CPD). The internal control was GAPDH or B-Actin (or otherwise indicated), and the gene of interest is the target. First, the averages of the 4 conditions were calculated for normalization: DMSO:GAPDH, DMSO:Target, CPD: GAPDH, and CPD:Target. Next, the ΔCT of both control and treatment were calculated to normalize to internal control (GAPDH) using (DMSO:Target)−(DMSO:GAPDH)=ΔCT control and (CPD:Target)−(CPD: GAPDH)=ΔCT experimental. Then, the ΔΔCT was calculated by ΔCT experimental−ΔCT control.
Candidate compounds were tested in stellate cells for their ability to modulate PNPLA3 and COL1A1. Stellate cells were treated with serial dilutions of the compounds, ranging from 0.1 μM to 100 μM. Changes in PNPLA3 (or COL1A1) mRNA levels in stellate cells were analyzed with qRT-PCR.

[2] = tested on: PNPLA3 mRNA; assay: qRT-PCR of PNPLA3 mRNA in compound-treated primary human hepatocytes; details: for Primary Hepatocytes 4178 PNPLA3 (fold change in mRNA expression): donor 4178, 3 μM; for Primary Hepatocytes 4282 PNPLA3 (fold change in mRNA expression): donor 4282, 3 μM; for Relative PNPLA3 mRNA expression: Table 35; for Relative PINPLA3 mRNA: hepatocytes; for Relative PNLPA3 mRNA expression in HU4282 cells: Lonza HU4282 hepatocytes; for Relative PNPLA3 mRNA expression in Yecuris RMG cells: Yecuris RMG hepatocytes
Procedure: Cryopreserved hepatocytes were cultured in plating media for 16 hours, transferred to maintenance media for 4 hours. Cultured on serum-free media for 2 hours, then a compound was added. The hepatocytes were maintained on the serum-free media for 16 hours prior to gene expression analysis.
Human hepatocytes cultured as described above were plated in 24-well format, adding 375,000 cells per well in a volume of 500 μl plating medium. Four hours before treatment, cells were washed with PBS and the medium was changed to either: fresh maintenance medium (complete) or modified maintenance medium.
Compound stocks were prepared at 1000× final concentration and added in a 2-step dilution to the medium to reduce risk of a compound precipitating out of solution when added to the cells, and to ensure reasonable pipetting volumes. One at a time, each compound was first diluted 10-fold in warm (about 37° C.) modified maintenance medium (initial dilution=ID), mixed by vortexing, and the ID was diluted 100-fold into the cell culture (e.g. 5.1 μl into 1 well of a 24-well plate containing 0.5 mL medium). The plate was mixed by carefully swirling and after all wells were treated and returned to the incubator overnight. If desired, separate plates/wells were treated with vehicle-only controls and/or positive controls. If using multi-well plates, controls were included on each plate. After about 18 hours, cells were harvested for further analysis, e.g., ChIP-seq, RNA-seq, ATAC-seq, etc.
Analysis of the fold changes in expression as measured by qRT-PCR were performed using the technique below. The control was DMSO, and the treatment was the selected compound (CPD). The internal control was GAPDH or B-Actin (or otherwise indicated), and the gene of interest is the target. First, the averages of the 4 conditions were calculated for normalization: DMSO:GAPDH, DMSO:Target, CPD: GAPDH, and CPD:Target. Next, the ΔCT of both control and treatment were calculated to normalize to internal control (GAPDH) using (DMSO:Target)−(DMSO:GAPDH)=ΔCT control and (CPD:Target)−(CPD: GAPDH)=ΔCT experimental. Then, the ΔΔCT was calculated by ΔCT experimental−ΔCT control. The Expression Fold Change (or Relative Quantification, abbreviated as RQ) was calculated by 2−(ΔΔCT) (2-fold expression change was shown by RNA-Seq results provided herein).
The aim of the validation studies was to test the identified compounds from key pathways, and expand the compound franchise to identify other potential hits. Candidate compounds were subjected to validation with qRT-PCR in human hepatocytes. qRT-PCR was performed on samples of primary human hepatocytes from a second donor treated with the candidate compounds. Compounds were tested at concentrations ranging from 0.01 μM to 50 μM, with the majority tested at 10 μM.
Primary human hepatocytes and stellate cells were also incubated with inhibitors of the TGFβ pathway and PNPLA3 gene expression changes assessed via qRT-PCR as previously described. In addition, primary hepatocytes and stellate cells were treated with TGFβ-ligand alone or with selected the small molecule inhibitors for 18 hours and subsequently harvested. for gene expression assays.
The other set was harvest for mRNA processing as previously described.

[3] = tested on: PNPLA3 mRNA; assay: qRT-PCR of PNPLA3 mRNA in human primary hepatic stellate cells; type: cell-based; details: for Primary Stellate cells PNPLA3 (fold change in mRNA expression): 3 μM; for Relative PNPLA3 mRNA expression: stellate cells, Table 37; for Relative PNPLA3 mRNA levels RQ: GSK3 inhibitors in hepatic stellate cells; for PNPLA3 mRNA levels (in words): hepatic stellate cells, serial dilutions, 18 hours; for Relative PNPLA3 nRNA expression in Stellate cells: 16 hours
[4] = tested on: PCSK9 mRNA; assay: qRT-PCR of PCSK9 mRNA in primary hepatocytes; type: cell-based, human; details: donor 4178, 3 μM, relative to GUSB
[5] = relative to GUSB, listed as GDC-0980
[6] = 3.3 uM, 16 hours, relative to GUSB
[7] = 10 uM, 16 hours, relative to GUSB

| Compound | Primary Stellate cells COL1A1 (fold change in mRNA expression) [1] | Primary Hepatocytes 4178 PNPLA3 (fold change in mRNA expression) ([2]; relative to GUSB) | Primary Hepatocytes 4282 PNPLA3 (fold change in mRNA expression) ([2]; relative to GUSB) | Primary Stellate cells PNPLA3 (fold change in mRNA expression) ([3]; relative to GAPDH) | Primary Hepatocytes 4178 PCSK9 (fold change in mRNA expression) [4] | other results |
| --- | --- | --- | --- | --- | --- | --- |
| C[C@@H](Nc1cc(F)cc(F)c1)c1cc(C(=O)N(C)C)cc2c(=O)cc(N3CCOCC3)oc12 [AZD8186] | 1.22 | 0.80 | 0.80 | 0.86 | 0.70 | – |
| c1cc(-c2cnn3cc(-c4ccc(N5CCNCC5)cc4)cnc23)c2cccnc2c1 [LDN212854, LDN-212854] | – | – | – | – | – | PNPLA3 mRNA, TGFβ and BMP pathway inhibitors (in words) ([2]; primary human hepatocytes): did not decrease PNPLA3 mRNA in primary human hepatocytes; Relative PNPLA3 mRNA expression ([2]; primary human hepatocytes, 3.3 uM): 1.095 ± 0.1332; Relative PNPLA3 mRNA expression ([2]; primary human hepatocytes, 10 uM): 0.9339 ± 0.04093; Relative PNPLA3 mRNA expression ([3]; 0.01 uM): 0.92 ± 0.22; Relative PNPLA3 mRNA expression ([3]; 0.1 uM): 1.02 ± 0.16; Relative PNPLA3 mRNA expression ([3]; 1 uM): 0.67 ± 0.12; Relative PNPLA3 mRNA expression ([3]; 10 uM): 7.43 ± 3.91 |
| Cc1nc(NC(=O)N2CCC[C@H]2C(N)=O)sc1-c1ccnc(C(C)(C)C(F)(F)F)c1 [BYL-719] | 1.24 | 0.69 | 0.60 | 0.70 | 0.71 | – |
| Cc1nc(-c2cn3c(n2)-c2ccc(-c4cnn(C(C)(C)C(N)=O)c4)cc2OCC3)n(C(C)C)n1 [GDC-0032] | 1.05 | 0.58 | 0.60 | 0.61 | 0.47 | – |
| c1ccc2c(-c3cnn4cc(-c5ccc(N6CCNCC6)cc5)cnc34)ccnc2c1 [LDN193189] | – | – | – | – | – | Relative PNPLA3 mRNA expression ([3]; 0.01 uM): 0.95 ± 0.09; Relative PNPLA3 mRNA expression ([3]; 0.1 uM): 0.83 ± 0.12; Relative PNPLA3 mRNA expression ([3]; 1 uM): 0.76 ± 0.07; Relative PNPLA3 mRNA expression ([3]; 10 uM): 9.25 |
| CO[C@@H](C)Cn1c(=O)n(C)c2cnc3ccc(-c4cncc(C(C)(C)O)c4)cc3c21 [LY3023414] | 0.49 | 0.80 | 1.00 | 0.94 | 0.65 | – |
| Cc1c(CN2CCN(C(=O)[C@H](C)O)CC2)sc2c(N3CCOCC3)nc(-c3cnc(N)nc3)nc12 [Apitolisib (GDC-0980, RG7422)] | 0.54 | 0.32 | 0.46 | 0.56 | 0.31 | – |
| CC(C)Oc1ccc(-c2nn([C@@H](C)c3oc4ccc(F)cc4c(=O)c3-c3cccc(F)c3)c3ncnc(N)c23)cc1F [umbralisib (TGR-1202)] | 1.15 | 0.90 | 0.80 | 1.10 | 0.80 | – |
| Cc1c(CN2CCN(C(=O)[C@H](C)O)CC2)sc2c(N3CCOCC3)nc(-c3cnc(N)nc3)nc12 [Apitolisib] | – | – | – | – | – | Primary Stellate cells COL1A1 (fold change in mRNA expression) ([1]; listed as GDC-0980): 0.61; Primary Hepatocytes 4178 PNPLA3 (fold change in mRNA expression) [2, 5]: 0.37; Primary Hepatocytes 4282 PNPLA3 (fold change in mRNA expression) [2, 5]: 0.40; Relative PINPLA3 mRNA ([2]; 0.1 uM): 0.893; Relative PINPLA3 mRNA ([2]; 0.3 uM): 0.669; Relative PINPLA3 mRNA ([2]; 1 uM): 0.420; Relative PINPLA3 mRNA ([2]; 3 uM): 0.365; PNPLA3 expression by reported compound specificity (in words) ([2]; summary of mTOR/PI3K inhibitor testing): most robust PNPLA3 inhibition; Primary Stellate cells PNPLA3 (fold change in mRNA expression) ([3]; relative to GAPDH, listed as GDC-0980): 0.67; Primary Hepatocytes 4178 PCSK9 (fold change in mRNA expression) ([4]; listed as GDC-0980): 0.40 |
| Cc1cc([C@@H](C)Nc2ccccc2C(=O)O)c2nc(N3CCOCC3)cc(=O)n2c1 [AZD6482] | 1.20 | – | – | 0.87 | 0.56 | – |
| C[C@H](Nc1ncnc2[nH]cnc12)c1cc2ccc(F)cc2nc1-c1ccccn1 [AMG319] | 0.99 | 0.73 | 0.85 | 0.99 | 0.74 | – |
| CNC(=O)c1cccc(-c2ccc3c(N4CCOC[C@@H]4C)nc(N4CCOC[C@@H]4C)nc3n2)c1 [AZD2014] | 0.55 | 0.43 | 0.80 | 0.56 | 0.36 | – |
| O=[N+]([O-])c1ccc(Nc2nc(N3CCOCC3)nc(N3CCOCC3)n2)cc1 [MHY1485] | 0.87 | 1.10 | 1.20 | 0.86 | 1.04 | – |
| CO[C@H]1CC[C@H](N2C(=O)CNc3ncc(-c4ccc(C(C)(C)O)nc4)nc32)CC1 [CC-223] | 0.50 | 0.51 | 0.80 | 0.33 | 0.72 | – |
| FC(F)c1nc2ccccc2n1-c1nc(N2CCOCC2)nc(N2CCOCC2)n1 [ZSTK474] | 0.71 | 0.60 | 0.80 | 0.68 | 0.66 | – |
| O=c1c(O)c(-c2ccc(O)c(O)c2)oc2cc(O)cc(O)c12 [Quercetin] | 0.94 | 1.16 | 0.93 | 1.11 | 0.95 | – |
| CN1CCN(S(=O)(=O)c2ccc(-c3cnc(N)c(C(=O)Nc4cccnc4)n3)cc2)CC1 [AZD2858] | – | – | – | – | – | Relative COL1A1 mRNA levels RQ ([1]; 1 μM): 0.83; Relative COL1A1 mRNA levels RQ ([1]; 10 μM): 0.72; COL1A1 expression (in words) [1]: modestly decreased both PNPLA3 and COL1A1 in a dose dependent manner; Relative PNPLA3 mRNA levels RQ ([3]; 1 μM): 0.48; Relative PNPLA3 mRNA levels RQ ([3]; 10 μM): 0.72; PNPLA3 mRNA levels (in words) [3]: modestly decreased both PNPLA3 and COL1A1 in a dose dependent manner |
| Nc1nc(N)c2nc(-c3cccc(O)c3)c(-c3cccc(O)c3)nc2n1 [TG100-115] | 1.11 | – | – | 1.07 | 0.69 | – |
| N#CCNC(=O)c1ccc(-c2ccnc(Nc3ccc(N4CCOCC4=O)cc3)n2)cc1 [M21] | – | – | – | – | – | Relative PNLPA3 mRNA expression in HU4282 cells [2, 6]: 0.213 ± 0.028; Relative PNLPA3 mRNA expression in HU4282 cells [2, 7]: 0.138 ± 0.015; PNPLA3 mRNA expression (in words) ([2]; Yecuris RMG and Lonza HU4282 hepatocytes, 16 hours, relative to GUSB): reduced PNPLA3 mRNA expression in a dose dependent manner; Relative PNPLA3 mRNA expression in Yecuris RMG cells [2, 6]: 0.910 ± 0.068; Relative PNPLA3 mRNA expression in Yecuris RMG cells [2, 7]: 0.165 ± 0.018; PNPLA3 mRNA expression (in words) ([3]; stellate cells ST1 and ST8, 16 hours, relative to GAPDH): reduced PNPLA3 mRNA expression, with the most significant decrease after treatment with 3.3 μM M21; Relative PNPLA3 nRNA expression in Stellate cells ([3]; stellate cells donor ST1, 3.3 uM, relative to GAPDH): 0.26 ± 0.11; Relative PNPLA3 nRNA expression in Stellate cells ([3]; stellate cells donor ST1, 10 uM, relative to GAPDH): 0.54 ± 0.10; Relative PNPLA3 nRNA expression in Stellate cells ([3]; stellate cells donor ST8, 3.3 uM, relative to GAPDH): 0.31 ± 0.01; Relative PNPLA3 nRNA expression in Stellate cells ([3]; stellate cells donor ST8, 10 uM, relative to GAPDH): 0.49 ± 0.05 |
| Cc1c(Cn2c(C)nc3c(C(=O)O)cc(N4CCOCC4)cc32)cccc1C(F)(F)F [GSK2636771] | 1.04 | – | – | 1.06 | 0.59 | – |
| COc1ccc(COc2cc3oc(=O)c4cc(C(C)O)ccc4c3cc2OC)cc1 (stereo not drawn) [Palomid 529 (P529)] | 1.10 | – | – | 0.97 | 1.05 | – |
| O=C1Nc2cc(Br)ccc2/C1=C1/Nc2ccccc2/C1=N\O [BIO] | – | – | – | – | – | Relative COL1A1 mRNA levels RQ ([1]; 1 μM): 0.74; Relative COL1A1 mRNA levels RQ ([1]; 10 μM): 0.59; COL1A1 expression (in words) [1]: modestly decreased both PNPLA3 and COL1A1 in a dose dependent manner; Relative PNPLA3 mRNA levels RQ ([3]; 1 μM): 1.09; Relative PNPLA3 mRNA levels RQ ([3]; 10 μM): 0.54; PNPLA3 mRNA levels (in words) [3]: modestly decreased both PNPLA3 and COL1A1 in a dose dependent manner |
| TGFB1 | – | – | – | – | – | Relative PNPLA3 mRNA expression ([3]; 0.001 ug/ML): 0.93 ± 0.11 and 1.50 ± 0.17; Relative PNPLA3 mRNA expression ([3]; 0.01 ug/ML): 2.35 ± 0.39 and 1.40 ± 0.10 |
